In ChEMBL document CHEMBL1146540, “Bioactive constituents from three Vismia species” (2003):
≈ marks a conversion by molar mass, not a printed value. Calls of active or inactive are those of the source. The rule behind the calls is not given here.

Key:
Assay type in all cases: functional
[1] = system: MCF7; test: Cytotoxicity against human MCF7 cells
[2] = system: NCI-H460; test: Cytotoxicity against human H460 cells
[3] = system: SF-268; test: Cytotoxicity against human SF268 cells

Row | Structure (SMILES) | Activity [1] | Activity [2] | Activity [3] | GI50 [1] | GI50 [2] | GI50 [3]
1 | COc1cc2c(c(O)c1/C=C/C(C)C)C(=O)c1c(O)cc(C)cc1C2=O | inactive | inactive | inactive |  |  | 
2 | COc1cc2c(c(O)c1/C=C/C(C)C)C(=O)c1c(O)cc(C)cc1C2C1c2cc(C)cc(O)c2C(=O)c2c1cc(OC)c(/C=C/C(C)C)c2O (stereo not given) | inactive | inactive | inactive |  |  | 
3 | COc1cc2cc3c(c(O)c2c(O)c1/C=C/C(C)C)C(=O)CC(C)(O)C3 (stereo not given) [DEACETYLVISMIONE A] |  |  |  | 1.8 µg/mL (≈ 5.05 µM) | 1.9 µg/mL (≈ 5.33 µM) | 2.2 µg/mL (≈ 6.17 µM)
4 | CC(C)=CCOc1cc(O)c2c(O)c3c(cc2c1)CC(C)(O)CC3=O (stereo not given) [DEACETYLVISMIONE H] |  |  |  | 0.4 µg/mL (≈ 1.17 µM) | 0.6 µg/mL (≈ 1.75 µM) | 0.6 µg/mL (≈ 1.75 µM)
5 | CC(C)=CCc1c(C)cc2cc3c(c(O)c2c1O)C(=O)C=C(O)C3(CC=C(C)C)CC=C(C)C [FERRUGININ A] |  |  |  | 5 µg/mL (≈ 10.9 µM) | 3.3 µg/mL (≈ 7.16 µM) | 4.9 µg/mL (≈ 10.6 µM)
6 | CC(C)=CCC1=C(O)C(CC=C(C)C)(CC=C(C)C)c2cc3cc(C)cc(O)c3c(O)c2C1=O [FERRUGININ B] |  |  |  | 5 µg/mL (≈ 10.9 µM) | 5 µg/mL (≈ 10.9 µM) | 4 µg/mL (≈ 8.68 µM)
7 | CC(C)=CCC1=C(O)C(CC=C(C)C)(CC=C(C)C)c2cc3c(CC=C(C)C)c(C)cc(O)c3c(O)c2C1=O [FERRUGININ C] |  |  |  | 4.8 µg/mL (≈ 9.08 µM) | 5.4 µg/mL (≈ 10.2 µM) | 4 µg/mL (≈ 7.57 µM)
8 | CC(C)=CCc1c(C)cc(O)c2c(O)c3c(cc12)C(CC=C(C)C)(CC=C(C)C)C(O)=CC3=O [HARUNGANIN] |  |  |  | 6 µg/mL (≈ 13 µM) | 6.4 µg/mL (≈ 13.9 µM) | 6 µg/mL (≈ 13 µM)
9 | CC(C)=CCC1(CC=C(C)C)C(O)=CC(=O)c2c1cc1cc(C)cc(O)c1c2O [VISMIN] |  |  |  | 5.2 µg/mL (≈ 13.2 µM) | 7.3 µg/mL (≈ 18.6 µM) | 5.7 µg/mL (≈ 14.5 µM)
10 | COc1cc2cc3c(c(O)c2c2c1C=CC(C)(C)O2)C(=O)CC(C)(O)C3 (stereo not given) [VISMIONE B] |  |  |  | 1.6 µg/mL (≈ 4.51 µM) | 2.8 µg/mL (≈ 7.9 µM) | 2.5 µg/mL (≈ 7.05 µM)
